What was measured:
Format in all cases: in vivo
[1] = tested on: pigweed (Amaranthus retroflexus); assay: Test C pre-/postemergence greenhouse test, plant response rating 0-100; settings: Postemergence; for Plant response rating, Pigweed: scale 0 to 100
Source text: (§1) Seeds of plant species selected from blackgrass (Alopecurus myosuroides), Italian ryegrass (Lolium multiflorum), winter wheat (Triticum aestivum), galium (catchweed bedstraw, Galium aparine), corn (Zea mays), large (Lg) crabgrass (Digitaria sanguinalis), giant foxtail (Setaria faberii), johnsongrass (Sorghum halepense), lambsquarters (Chenopodium album), morningglory (Ipomoea coccinea), yellow nutsedge (Cyperus esculentus), pigweed (Amaranthus retroflexus), ragweed (common ragweed, Ambrosia elatior), soybean (Glycine max), barnyardgrass (Echinochloa crus-galli), oilseed rape (Brassica napus), waterhemp (common waterhemp, Amaranthus rudis), and velvetleaf (Abutilon theophrasti) were planted into a blend of loam soil and sand and treated preemergence with test chemicals formulated in a non-phytotoxic solvent mixture which included a surfactant.
(§2) At the same time, plants selected from these crop and weed species and also winter barley (Hordeum vulgare), bermudagrass (Cynodon dactylon), downy bromegrass (Bromus tectorum), canarygrass (Phalaris minor), cocklebur (common cocklebur, Xanthium strumarium), woolly cupgrass (Eriochloa villosa), deadnettle (henbit deadnettle, Lamium amplexicaule), green foxtail (Setaria viridis), goosegrass (Eleusine indica), surinam grass (Brachiaria decumbens), windgrass (Apera spica-venti), chickweed (common chickweed, Stellaria media), kochia (Kochia scoparia), and wild oat (Avena fatua), were planted in pots containing Redi-Earth® planting medium (Scotts Company, 14111 Scottslawn Road, Marysville, Ohio 43041) comprising spaghnum peat moss, vermiculite, wetting agent and starter nutrients and treated with postemergence applications of test chemicals formulated in the same manner. Plants ranged in height from 2 to 18 cm (1- to 4-leaf stage) for postemergence treatments. Treated plants and controls were maintained in a greenhouse for 13 to 15 days, after which time all species were compared to controls and visually evaluated. Plant response ratings, summarized in Table C, are based on a scale of 0 to 100 where 0 is no effect and 100 is complete control. A dash (-) response means no test result.

corn (Zea mays) [2] = assay: as above; settings: Postemergence; for Plant response rating, Corn: scale 0 to 100
Source text: as §1, §2

[3] = tested on: ragweed (common ragweed, Ambrosia elatior); assay: as above
Source text: as §1, §2

[4] = tested on: Italian ryegrass (Lolium multiflorum); assay: as above
Source text: as §1, §2

[5] = tested on: velvetleaf (Abutilon theophrasti); assay: as above
Source text: as §1, §2

[6] = tested on: wheat (Triticum aestivum); assay: Test A pre-/postemergence greenhouse herbicide test, visual injury rating 0-100
Procedure, shortened: (§3)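 Greenhouse plants received compound either as directed soil spray at planting or as postemergence spray at the one- to two-leaf stage (2–10 cm). Evaluated after about 10 days by visual comparison with untreated controls.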

[7] = tested on: pigweed (Amaranthus retroflexus); assay: as above
Procedure, shortened: as §3

corn (Zea mays) [8] = assay: as above
Procedure, shortened: as §3

[9] = tested on: giant foxtail (Setaria faberii); assay: as above
Procedure, shortened: as §3

[10] = tested on: velvetleaf (Abutilon theophrasti); assay: as above
Procedure, shortened: as §3

[11] = tested on: barnyardgrass (Echinochloa crus-galli); assay: as above
Procedure, shortened: as §3

[12] = tested on: morningglory (Ipomoea spp.); assay: as above
Procedure, shortened: as §3

[13] = tested on: large (Lg) crabgrass (Digitaria sanguinalis); assay: as above
Procedure, shortened: as §3

[14] = Postemergence, 250 g ai/ha, scale 0 to 100
[15] = Postemergence, 500 g ai/ha, scale 0 to 100
[16] = Preemergence, 0 to 100 scale (0 no effect, 100 complete control), rate 500 g ai/ha per head r3, sub-head of this section not shown

`O=C(c1ccccc1)c1cn(S(=O)(=O)C(F)(F)F)nc1-c1cc(Cl)cc(Cl)c1` [Compound 2] was tested, and the “Plant response rating (0 to 100), Pigweed” value ([1]; 62 g ai/ha) was 90, the “Plant response rating (0 to 100), Pigweed” value ([1]; 125 g ai/ha) was 90 and the “Plant response rating, Pigweed” value ([1]; 250 g ai/ha) was 98. The “Plant response rating, Pigweed” value ([1]; 500 g ai/ha) was 100, the “Plant response rating (0 to 100), Corn” value (corn (Zea mays) [2]; 62 g ai/ha) was 0 and the “Plant response rating (0 to 100), Corn” value (corn (Zea mays) [2]; 125 g ai/ha) was 0. For the same compound, the “Plant response rating, Corn” value (corn (Zea mays) [2]; 250 g ai/ha) was 0, the “Plant response rating, Corn” value (corn (Zea mays) [2]; 500 g ai/ha) was 0 and the “Plant response rating (0 to 100), Ragweed” value ([3]; Postemergence, 62 g ai/ha) was 40. For the same compound, the “Plant response rating (0 to 100), Ragweed” value ([3]; Postemergence, 125 g ai/ha) was 60, the “Plant response rating, Ragweed” value [3, 14] was 60 and the “Plant response rating, Ragweed” value [3, 15] was 70. For the same compound, the “Plant response rating, Ragweed” value [3, 16] was 0, the “Plant response rating (0 to 100), Ryegrass, Italian” value ([4]; Postemergence, 62 g ai/ha) was 0 and the “Plant response rating (0 to 100), Ryegrass, Italian” value ([4]; Postemergence, 125 g ai/ha) was 0. The “Plant response rating, Ryegrass, Italian” value [4, 14] was 0, the “Plant response rating, Ryegrass, Italian” value [4, 15] was 0 and the “Plant response rating, Ryegrass, Italian” value [4, 16] was 0. For the same compound, the “Plant response rating (0 to 100), Velvetleaf” value ([5]; Postemergence, 62 g ai/ha) was 75, the “Plant response rating (0 to 100), Velvetleaf” value ([5]; Postemergence, 125 g ai/ha) was 75 and the “Plant response rating, Velvetleaf” value [5, 14] was 80. For the same compound, the “Plant response rating, Velvetleaf” value [5, 15] was 85, the “Plant response rating, Velvetleaf” value [5, 16] was 35 and the “Plant response rating (0 to 100 scale), Wheat” value ([6]; Postemergence, 125 g ai/ha) was 0. For the same compound, the “Plant response rating (0 to 100 scale), Wheat” value ([6]; Postemergence, 500 g ai/ha) was 0, the “Wheat plant response rating (0 = no effect, 100 = complete control)” value ([6]; Preemergence, 125 g ai/ha) was 0 and the “Plant response rating (0 to 100 scale), Wheat” value ([6]; Preemergence, 500 g ai/ha) was 0. The “Plant response rating (0 to 100 scale), Pigweed” value ([7]; Postemergence, 125 g ai/ha) was 90, the “Plant response rating (0 to 100 scale), Pigweed” value ([7]; Postemergence, 500 g ai/ha) was 100 and the “Pigweed plant response rating (0 = no effect, 100 = complete control)” value ([7]; Preemergence, 125 g ai/ha) was 50. The “Plant response rating (0 to 100 scale), Pigweed” value ([7]; Preemergence, 500 g ai/ha) was 100, the “Plant response rating (0 to 100 scale), Corn” value (corn (Zea mays) [8]; Postemergence, 125 g ai/ha) was 0 and the “Plant response rating (0 to 100 scale), Corn” value (corn (Zea mays) [8]; Postemergence, 500 g ai/ha) was 0. For the same compound, the “Corn plant response rating (0 = no effect, 100 = complete control)” value (corn (Zea mays) [8]; Preemergence, 125 g ai/ha) was 0, the “Plant response rating (0 to 100 scale), Corn” value (corn (Zea mays) [8]; Preemergence, 500 g ai/ha) was 0 and the “Plant response rating (0 to 100 scale), Foxtail, Giant” value ([9]; Postemergence, 125 g ai/ha) was 0. The “Plant response rating (0 to 100 scale), Foxtail, Giant” value ([9]; Postemergence, 500 g ai/ha) was 0, the “Foxtail, Giant plant response rating (0 = no effect, 100 = complete control)” value ([9]; Preemergence, 125 g ai/ha) was 0 and the “Plant response rating (0 to 100 scale), Foxtail, Giant” value ([9]; Preemergence, 500 g ai/ha) was 0. For the same compound, the “Plant response rating (0 to 100 scale), Velvetleaf” value ([10]; Postemergence, 125 g ai/ha) was 90, the “Plant response rating (0 to 100 scale), Velvetleaf” value ([10]; Postemergence, 500 g ai/ha) was 100 and the “Velvetleaf plant response rating (0 = no effect, 100 = complete control)” value ([10]; Preemergence, 125 g ai/ha) was 20. For the same compound, the “Plant response rating (0 to 100 scale), Velvetleaf” value ([10]; Preemergence, 500 g ai/ha) was 100, the “Plant response rating (0 to 100 scale), Barnyardgrass” value ([11]; Postemergence, 125 g ai/ha) was 0 and the “Plant response rating (0 to 100 scale), Barnyardgrass” value ([11]; Postemergence, 500 g ai/ha) was 0. The “Barnyardgrass plant response rating (0 = no effect, 100 = complete control)” value ([11]; Preemergence, 125 g ai/ha) was 0, the “Plant response rating (0 to 100 scale), Barnyardgrass” value ([11]; Preemergence, 500 g ai/ha) was 0 and the “Plant response rating (0 to 100 scale), Morningglory” value ([12]; Postemergence, 125 g ai/ha) was 0. The “Plant response rating (0 to 100 scale), Morningglory” value ([12]; Postemergence, 500 g ai/ha) was 0, the “Morningglory plant response rating (0 = no effect, 100 = complete control)” value ([12]; Preemergence, 125 g ai/ha) was 0 and the “Plant response rating (0 to 100 scale), Morningglory” value ([12]; Preemergence, 500 g ai/ha) was 0. The “Plant response rating (0 to 100 scale), Crabgrass, Large” value ([13]; Postemergence, 125 g ai/ha) was 0, the “Plant response rating (0 to 100 scale), Crabgrass, Large” value ([13]; Postemergence, 500 g ai/ha) was 0 and the “Crabgrass, Large plant response rating (0 = no effect, 100 = complete control)” value ([13]; Preemergence, 125 g ai/ha) was 0. The “Plant response rating (0 to 100 scale), Crabgrass, Large” value ([13]; Preemergence, 500 g ai/ha) was 0.

In the case of `Cn1cc(C(=O)c2ccccc2)c(-c2cc(Br)cc(Br)c2)n1` [Compound 53], the “Plant response rating (0 to 100), Pigweed” value ([1]; 62 g ai/ha) is reported as 85, the “Plant response rating (0 to 100), Pigweed” value ([1]; 125 g ai/ha) is reported as 85 and the “Plant response rating, Pigweed” value ([1]; 250 g ai/ha) is reported as 90. For the same compound, the “Plant response rating, Pigweed” value ([1]; 500 g ai/ha) was 90, the “Plant response rating (0 to 100), Corn” value (corn (Zea mays) [2]; 62 g ai/ha) was 5 and the “Plant response rating (0 to 100), Corn” value (corn (Zea mays) [2]; 125 g ai/ha) was 5. For the same compound, the “Plant response rating, Corn” value (corn (Zea mays) [2]; 250 g ai/ha) was 5, the “Plant response rating, Corn” value (corn (Zea mays) [2]; 500 g ai/ha) was 5 and the “Plant response rating (0 to 100), Ragweed” value ([3]; Postemergence, 62 g ai/ha) was 10. For the same compound, the “Plant response rating (0 to 100), Ragweed” value ([3]; Postemergence, 125 g ai/ha) was 10, the “Plant response rating, Ragweed” value [3, 14] was 10 and the “Plant response rating, Ragweed” value [3, 15] was 10. For the same compound, the “Plant response rating (0 to 100), Ryegrass, Italian” value ([4]; Postemergence, 62 g ai/ha) was 0, the “Plant response rating (0 to 100), Ryegrass, Italian” value ([4]; Postemergence, 125 g ai/ha) was 0 and the “Plant response rating, Ryegrass, Italian” value [4, 14] was 0. The “Plant response rating, Ryegrass, Italian” value [4, 15] was 0, the “Plant response rating (0 to 100), Velvetleaf” value ([5]; Postemergence, 62 g ai/ha) was 60 and the “Plant response rating (0 to 100), Velvetleaf” value ([5]; Postemergence, 125 g ai/ha) was 75. The “Plant response rating, Velvetleaf” value [5, 14] was 90, the “Plant response rating (0 to 100 scale), Wheat” value ([6]; Postemergence, 1000 g ai/ha) was 0 and the “Plant response rating (0 to 100 scale), Wheat” value ([6]; Preemergence, 1000 g ai/ha) was 0. For the same compound, the “Plant response rating (0 to 100 scale), Pigweed” value ([7]; Postemergence, 1000 g ai/ha) was 100, the “Plant response rating (0 to 100 scale), Pigweed” value ([7]; Preemergence, 1000 g ai/ha) was 90 and the “Plant response rating (0 to 100 scale), Corn” value (corn (Zea mays) [8]; Postemergence, 1000 g ai/ha) was 0. For the same compound, the “Plant response rating (0 to 100 scale), Corn” value (corn (Zea mays) [8]; Preemergence, 1000 g ai/ha) was 0, the “Plant response rating (0 to 100 scale), Foxtail, Giant” value ([9]; Postemergence, 1000 g ai/ha) was 0 and the “Plant response rating (0 to 100 scale), Foxtail, Giant” value ([9]; Preemergence, 1000 g ai/ha) was 0. The “Plant response rating (0 to 100 scale), Velvetleaf” value ([10]; Postemergence, 1000 g ai/ha) was 90, the “Plant response rating (0 to 100 scale), Velvetleaf” value ([10]; Preemergence, 1000 g ai/ha) was 60 and the “Plant response rating (0 to 100 scale), Barnyardgrass” value ([11]; Postemergence, 1000 g ai/ha) was 0. The “Plant response rating (0 to 100 scale), Barnyardgrass” value ([11]; Preemergence, 1000 g ai/ha) was 0, the “Plant response rating (0 to 100 scale), Morningglory” value ([12]; Postemergence, 1000 g ai/ha) was 0 and the “Plant response rating (0 to 100 scale), Morningglory” value ([12]; Preemergence, 1000 g ai/ha) was 0. The “Plant response rating (0 to 100 scale), Crabgrass, Large” value ([13]; Postemergence, 1000 g ai/ha) was 0 and the “Plant response rating (0 to 100 scale), Crabgrass, Large” value ([13]; Preemergence, 1000 g ai/ha) was 0.

Reference: US10167262B2, “Herbicidal substituted 3-arylpyrazoles” (FMC CORPORATION, priority 2014, dated 2019)
